Measurements taken from US20050266435A1, “VR1 receptors and uses thereof” (priority 2004, published 2005).
pIC50: −log10 of the molar value.

Legend:
[1] = target: T1, mutant VR1 receptor Y511A (Homo sapiens, UniProt Q8NER1, Y511A); experiment: Two-electrode voltage clamp in Xenopus oocytes, capsaicin activation; format: cell-based; conditions: capsaicin concentrations as high as 100 μM
T1 construct: expressed in transfected cells; host or cells: Xenopus oocytes (RNA injected, pTNT vector)
Procedure: (§1) The ability of capsaicin to activate the mutant VR1 receptors was evaluated in an oocyte system. cDNAs containing the coding sequences of the unmutated human VR1 receptor as well as the mutant receptors Y511A, […], and S512Y were placed into the multiple-cloning site in the pTNT vector (Promega), which contains a T7 promoter sequence, the beta-globin 5′UTR, and a polyadenylation sequence to enhance translation and RNA stability. RNA was synthesized in-vitro using T7 RNA polymerase. The RNA for each channel was injected into Xenopus oocytes (obtained from Nasco, Inc) and incubated at 16° C. for 3-5 days. Standard two-electrode voltage clamp recordings were used to analyze the function of each expressed channel. Solutions were passed over the oocytes using a multiple-valve perfusion system.

[2] = target: T2, mutant VR1 receptor Y511C (Homo sapiens, UniProt Q8NER1, Y511C); experiment: as above; format: cell-based; conditions: capsaicin concentrations as high as 100 μM
Procedure: as §1

[3] = target: T3, wild-type human VR1 receptor (Homo sapiens, UniProt Q8NER1); experiment: as above; format: cell-based; conditions: 10 μM capsaicin
T3 construct: expressed in transfected cells; host or cells: Xenopus oocytes (RNA injected, pTNT vector)
Procedure: as §1

[4] = target: T2, mutant VR1 receptor Y511C; experiment: Calcium imaging with fura-2 in transfected HEK293 cells, low pH (pH 5.1) stimulus; format: cell-based; set-up: expressed in transfected cells; host or cells: HEK293
Procedure: (§2) The resulting sequence-verified mutant VR1 DNA was inserted into the pcDNA3.1 vector (Invitrogen). Human HEK293 cells were then transfected with the DNA, incubated at 37° C. for 24-48 hrs, and then analyzed for receptor response using calcium imaging techniques.
(§3) Calcium imaging was performed using a Zeiss Axiovert 200M fluorescence microscope equipped with a Photonics Polychrome IV monochrometer fluorescence excitation system as well as a multivalve perfusion system for delivering drugs. Cells were plated on 12 mm glass coverslips and loaded with fura2-AM for 30 min at 37° C. Imaging was performed by alternatively measuring the fluorescence excited at 340 nm and 380 nm at 5 sec time intervals. The ratio between these measured fluorescence values (F340/F380) was then calculated and graphed as a function of time. The 340/380 fluorescence ratio is proportional in a nonlinear way to the intracellular free calcium concentration. Since VR1 is a calcium channel, its opening results in an influx of calcium into the cytoplasm and an increase in the 340/380 fluorescence ratio.
(§4) A normal saline (pH 7.6) wash solution was used as the control solution. […] Compound 18 is named 4-(3-Chloropyridin-2-yl)-N-(4-trifluoromethyl-phenyl)benzamide, and is described and disclosed in commonly owned co-pending International Application No. PCT/US04/033099 filed Oct. […]

[5] = target: T4, mutant channel Y511A (VR1) (Homo sapiens, UniProt Q8NER1, Y511A); experiment: Calcium imaging with fura-2 in transfected HEK293 cells, low pH stimulus; format: cell-based
T4 construct: expressed in transfected cells; host or cells: HEK293
Procedure: as §2, §3, §4

[6] = target: T5, mutant channel S512Y (VR1) (Homo sapiens, UniProt Q8NER1, S512Y); experiment: Two-electrode voltage clamp in Xenopus oocytes, capsaicin activation; format: cell-based; set-up: expressed in transfected cells; host or cells: Xenopus oocytes (RNA injected, pTNT vector)
Procedure: as §1

[7] = target: T5, mutant channel S512Y (VR1); experiment: Calcium imaging with fura-2 in transfected HEK293 cells, low pH stimulus; format: cell-based; set-up: expressed in transfected cells; host or cells: HEK293
Procedure: as §2, §3, §4

human VR1 = human VR1 (Homo sapiens, UniProt Q8NER1); conditions: cited from earlier work
rat VR1 = rat VR1 (Rattus norvegicus, UniProt O35433); conditions: cited from earlier work
Chain of rat VR1 (O35433 whole entry): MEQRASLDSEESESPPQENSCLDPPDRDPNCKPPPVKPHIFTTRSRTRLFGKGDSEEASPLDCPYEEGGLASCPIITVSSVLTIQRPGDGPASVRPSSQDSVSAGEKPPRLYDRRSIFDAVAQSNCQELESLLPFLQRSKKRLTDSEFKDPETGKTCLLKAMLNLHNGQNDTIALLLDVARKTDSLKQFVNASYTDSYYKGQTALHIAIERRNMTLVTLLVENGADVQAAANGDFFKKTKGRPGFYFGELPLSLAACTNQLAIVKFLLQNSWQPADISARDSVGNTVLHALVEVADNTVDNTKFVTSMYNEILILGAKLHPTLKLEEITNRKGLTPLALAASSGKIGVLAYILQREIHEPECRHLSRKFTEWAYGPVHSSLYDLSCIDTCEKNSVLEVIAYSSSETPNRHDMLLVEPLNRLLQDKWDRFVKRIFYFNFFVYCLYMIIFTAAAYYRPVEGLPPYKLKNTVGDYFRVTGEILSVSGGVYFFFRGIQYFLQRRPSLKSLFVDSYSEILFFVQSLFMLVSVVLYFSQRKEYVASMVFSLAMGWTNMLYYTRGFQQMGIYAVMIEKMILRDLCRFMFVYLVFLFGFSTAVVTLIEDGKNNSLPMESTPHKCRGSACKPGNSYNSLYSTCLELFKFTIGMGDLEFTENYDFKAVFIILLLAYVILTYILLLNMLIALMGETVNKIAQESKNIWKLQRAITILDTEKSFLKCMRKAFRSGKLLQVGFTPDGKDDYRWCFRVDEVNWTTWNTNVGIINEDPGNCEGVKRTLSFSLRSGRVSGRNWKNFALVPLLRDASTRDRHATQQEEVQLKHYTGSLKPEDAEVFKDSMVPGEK

[8] = target: T2, mutant VR1 receptor Y511C; experiment: Specific binding of 3H-Resiniferatoxin to membranes of 293 HEK cells; set-up: expressed in transfected cells; host or cells: HEK293; conditions: 3H-RTX 0.5 nM, absence or presence of unlabeled RTX 200 nM
Procedure: Specific binding of ^3H-Resiniferatoxin (RTX) to membranes of 293 HEK cells expressing human VR 1 and mutant VR 1 receptor Y511C was assessed and the results are presented in FIG. 6. Binding of ^3H-RTX (0.5 nM) to the membranes was conducted in the absence (labeled total binding) or presence (labeled non specific binding) of unlabeled RTX (200 nM) as indicated.

For COc1cc(CNC(=O)CCCC/C=C/C(C)C)ccc1O [capsaicin], the “capsaicin response (current)” value [1] was “no detectable capsaicin response”, the “capsaicin response (current)” value [2] was “no detectable capsaicin response” and the “capsaicin response (current)” value [3] was “large response”. For the same molecule, the “response to capsaicin (calcium influx)” value ([4]; 250 nM capsaicin, Y511C in transfected 293 cells) was “no detectable response”, the “sensitivity of channel to capsaicin” value [5] was “capsaicin-insensitive” and the “capsaicin response (current)” value ([6]; 10 μM capsaicin (data not shown)) was “no detectable response”. For the same molecule, the “capsaicin response (current)” value ([6]; 100 μM capsaicin) was “small capsaicin response” and the “sensitivity of channel to capsaicin” value [7] was “capsaicin-insensitive”.
In the case of COc1cc(CC(=O)OCC2=C[C@H]3[C@@H]4C(C)(C)[C@]4(OC(C)=O)[C@H](OC(=O)Cc4ccccc4)[C@@H](C)[C@]3(O)[C@@H]3C=C(C)C(=O)[C@@]3(O)C2)ccc1O [PPAHV, phorbol 12-phenylacetate 13 acetate 20-homovanillate], the “agonist activity on human VR1” value (human VR1; up to a concentration of 10•M) is given as “essentially inactive”.
For Oc1cc2c(cc1O)CN(C(=S)NCCc1ccc(Cl)cc1)CCC2 [capsazine], the “block of low pH-evoked responses” value (rat VR1) is given as “not”, the “inhibition of heat response” value (rat VR1) is given as “weak inhibitor” and the “potency of inhibition of capsaicin activation, human VR1 versus rat” value (human VR1; greater potency on human VR1 receptors than rat) is given as “approximately 6 fold”. The “block of VR1-mediated heat response” value (human VR1; human VR1) was “highly effective” and the “block of low pH-evoked responses” value (human VR1; human VR1) was “blocked”.
With C=C(C)[C@]12C[C@@H](C)[C@@]34O[C@](Cc5ccccc5)(O[C@@H]1[C@@H]3C=C(COC(=O)Cc1ccc(O)c(OC)c1)C[C@]1(O)C(=O)C(C)=C[C@@H]41)O2 [RTX, resiniferatoxin] the “binding to the mutant VR1 receptor” value [8] was “no significant binding”.
Work on O=C(Nc1ccc(C(F)(F)F)cc1)c1ccc(-c2ncccc2Cl)cc1 [Compound 18, 4-(3-Chloropyridin-2-yl)-N-(4-trifluoromethyl-phenyl)benzamide] yielded a pIC50 ([4]; mutant VR1 receptor channel, read-out: IC50 for channel blocking activity) of 6.87.
